Data published in patent US20150191484A1, “NOVEL COMPOUNDS HAVING A TETRACYCLIC IRIDOID SKELTON AND AN ANTI-TRYPANOSOMAL AGENT COMPRISING THE SAME AS AN ACTIVE INGREDIENT” (NATIONAL UNIVERSITY CORPORATION TOKYO MEDICAL AND DENTAL …, priority 2014, published 2015).

Legend:
[1] = tested on: NB1RGB (normal fibroblast); assay: MTT cytotoxicity assay, NB1RGB; type: cell-based, human; details: IC50 against NB1RGB / IC50 against T. brucei
Method: (§1) The cytotoxic activity of natural products against mammalian cells is an important point in the search for active compounds with biological activity. […] In order to confirm the selective and potent anti-trypanosomal activity of ML-2-2 and ML-2-3, we examined their cytotoxicity in a panel of human cell lines including two human fibroblastic and 8 human cancer-derived cell lines. Cells were seeded in 96-well microplates and incubated with ML-2-2 and ML-2-3 for 48 h at 37° C. in a 5% CO2 humidified incubator. The viabilities of cells were determined with the MTT (3-(4,5-dimethylthiazol-2-yl)-2-5-diphenyltetrazolium bromide) assay. The selectivity index (SI) was determined using the following equation: IC50 against human cells/IC50 against T. brucei. The IC50 values of ML-2-3 were higher than those of ML-2-2 in all the cell lines examined. […] The SI of ML-2-2 indicates values below 1.00 in most cell lines. On the other hand, SI values of ML-2-3 were much higher than those of ML-2-2 in all tested cell lines.

[2] = MTT cytotoxicity assay, NB1RGB; type: cell-based, human; details: human, NB1RGB normal fibroblast cells; NB1RGB normal fibroblast, 48 h, MTT
Method: as §1

SMILES: COc1cc(/C=C2/C(=O)O[C@]34C=C[C@@H]5C(C(=O)O)=CO[C@H](O[C@@H]23)[C@@H]54)ccc1O [ML-2-3, (3aS,4aR,4a^1S,7aS,9aS,3E)-3-(4-hydroxy-3-methoxybenzylidene)-2-oxo-2,3,3a,4a,4a^1,7a-hexahydro-1,4,5-trioxadicyclopenta[a,hi]indene-7-carboxylic acid]
- SI (selectivity index) [1]: 9.96
- IC50 at 48 h [2]: 37.4 µM
